According to patent US6355799B1, “Substituted benzene compounds, process for their preparation, and herbicidal and defoliant compositions containing them” (ISK Americas Incorporated, priority 1997, dated 2002):

Assays:
Assay type in all cases: in vivo
[1] = tested on: upland rice (Oryza sp., var. Tebonnet, RICE); test: Post-emerge test, crop safety; details: rating scale 0-100 (0 no damage, 100 complete death), 14 days after application
Method in brief: (§1)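 Herbicidal damage is scored 0 (none) to 100 (complete plant death) two weeks after a simulated field spray. Rates span 15–1000 g ai/ha, delivered in acetone at 187 l/ha. For post-emergence treatments, plants have 2–3 leaves and the spray carries 0.25% v/v non-ionic surfactant.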

[2] = tested on: field corn (Zea mays L., var. Dekalb 535, CORN); test: Post-emerge test, crop safety; details: rating scale 0-100 (0 no damage, 100 complete death), 14 days after application
Method in brief: as §1

[3] = tested on: johnsongrass (Sorghum halepense, SORHA); test: Post-emerge test, greenhouse herbicide activity screening; details: rating scale 0-100 (0 no damage, 100 complete death), 14 days after application
Method in brief: (§2)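 Visual ratings on a 0-100 scale (0 no damage, 100 all plants dead) were taken at 14 days after treatment. Rates of 15-1000 g ai/ha in acetone, 187 l/ha, were sprayed onto soil one day after planting (pre-emerge) or onto 2-3 leaf plants with 0.25% v/v surfactant (post-emerge).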

[4] = tested on: redroot pigweed (Amaranthus retroflexus, AMARE); test: as above; details: rating scale 0-100 (0 no damage, 100 complete death), 14 days after application
Method in brief: as §2

[5] = tested on: common ragweed (Ambrosia artemisizfolia L., AMBEL); test: as above; details: rating scale 0-100 (0 no damage, 100 complete death), 14 days after application
Method in brief: as §2

[6] = tested on: barnyardgrass (Echinochloa crus-galli, ECHCG); test: as above; details: rating scale 0-100 (0 no damage, 100 complete death), 14 days after application
Method in brief: as §2

[7] = tested on: velvetleaf (Abutilon theophrasti, ABUTH); test: as above; details: rating scale 0-100 (0 no damage, 100 complete death), 14 days after application
Method in brief: as §2

[8] = tested on: sicklepod (Cassia obtusifolia, CASOB); test: as above; details: rating scale 0-100 (0 no damage, 100 complete death), 14 days after application
Method in brief: as §2

[9] = tested on: lambsquarters (Chenopodium album, CHEAL); test: as above; details: rating scale 0-100 (0 no damage, 100 complete death), 14 days after application
Method in brief: as §2

[10] = tested on: ivyleaf morningglory (Ipomoea hederacea, IPOHE); test: as above; details: rating scale 0-100 (0 no damage, 100 complete death), 14 days after application
Method in brief: as §2

[11] = tested on: green foxtail (Setaria viridis, SETVI); test: as above; details: rating scale 0-100 (0 no damage, 100 complete death), 14 days after application
Method in brief: as §2

[12] = tested on: large crabgrass (Digitaria sanguinalis, DIGSA); test: as above; details: rating scale 0-100 (0 no damage, 100 complete death), 14 days after application
Method in brief: as §2

[13] = tested on: redroot pigweed (Amaranthus retroflexus, AMARE); test: Pre-emerge test, greenhouse herbicide activity screening; details: rating scale 0-100, 14 days after application
Method in brief: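 Compounds in acetone were track-sprayed at 187 l/ha, 15–1000 g ai/ha, onto sandy loam pots. Pre-emerge seeds were sown one day before spraying, with surface watering afterwards. Post-emerge plants were at the 2–3 leaf stage and sprayed with 0.25% v/v non-ionic surfactant. Injury was rated 0–100 at 14 days.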

[14] = tested on: johnsongrass (Sorghum halepense, SORHA); test: as above; details: rating scale 0-100, 14 days after application
Method in brief: as §1

[15] = tested on: common ragweed (Ambrosia artemisizfolia L., AMBEL); test: as above; details: rating scale 0-100, 14 days after application
Method in brief: as §1

[16] = tested on: barnyardgrass (Echinochloa crus-galli, ECHCG); test: as above; details: rating scale 0-100, 14 days after application
Method in brief: as §1

[17] = tested on: velvetleaf (Abutilon theophrasti, ABUTH); test: as above; details: rating scale 0-100, 14 days after application
Method in brief: as §1

[18] = tested on: sicklepod (Cassia obtusifolia, CASOB); test: as above; details: rating scale 0-100, 14 days after application
Method in brief: as §1

[19] = tested on: lambsquarters (Chenopodium album, CHEAL); test: as above; details: rating scale 0-100, 14 days after application
Method in brief: as §1

[20] = tested on: ivyleaf morningglory (Ipomoea hederacea, IPOHE); test: as above; details: rating scale 0-100, 14 days after application
Method in brief: as §1

[21] = tested on: green foxtail (Setaria viridis, SETVI); test: as above; details: rating scale 0-100, 14 days after application
Method in brief: as §1

[22] = tested on: large crabgrass (Digitaria sanguinalis, DIGSA); test: as above; details: rating scale 0-100, 14 days after application
Method in brief: as §1

[23] = tested on: upland rice (Oryza sp., var. Tebonnet, RICE); test: Pre-emerge test, crop safety; details: rating scale 0-100, 14 days after application
Method in brief: (§3)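 Rating: 0–100 visual injury, 14 DAA. Application: acetone, 187 l/ha, 15–1000 g ai/ha, flat-fan track sprayer with nozzle 40–45 cm above soil or canopy. Post-emerge runs used 0.25% v/v surfactant on 2–3 leaf plants.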

[24] = tested on: field corn (Zea mays L., var. Dekalb 535, CORN); test: Pre-emerge test, crop safety; details: rating scale 0-100, 14 days after application
Method in brief: as §3

COc1c(Cl)cc(F)c(-n2c(=O)cc(C(F)(F)F)n(C)c2=O)c1CC(C)(Cl)C(=O)OCC(C)C (stereo not drawn) [14-40]
Post-emerge phytotoxicity rating RICE (crop damage) ([1]; Rate 63 g ai/ha): 15 | Post-emerge phytotoxicity rating RICE (crop damage) ([1]; Rate 250 g ai/ha): 75 | Post-emerge phytotoxicity rating CORN (crop damage) ([2]; Rate 63 g ai/ha): 35 | Post-emerge phytotoxicity rating CORN (crop damage) ([2]; Rate 250 g ai/ha): 70 | Post-emerge Herbicidal Activity, phytotoxicity rating SORHA ([3]; Rate 63 g ai/ha): 20 | Post-emerge Herbicidal Activity, phytotoxicity rating SORHA ([3]; Rate 250 g ai/ha): 20 | Post-emerge Herbicidal Activity, phytotoxicity rating AMARE ([4]; Rate 63 g ai/ha): 100 | Post-emerge Herbicidal Activity, phytotoxicity rating AMARE ([4]; Rate 250 g ai/ha): 100 | Post-emerge Herbicidal Activity, phytotoxicity rating AMBEL ([5]; Rate 63 g ai/ha): 90 | Post-emerge Herbicidal Activity, phytotoxicity rating AMBEL ([5]; Rate 250 g ai/ha): 100 | Post-emerge Herbicidal Activity, phytotoxicity rating ECHCG ([6]; Rate 63 g ai/ha): 100 | Post-emerge Herbicidal Activity, phytotoxicity rating ECHCG ([6]; Rate 250 g ai/ha): 100 | Post-emerge Herbicidal Activity, phytotoxicity rating ABUTH ([7]; Rate 63 g ai/ha): 90 | Post-emerge Herbicidal Activity, phytotoxicity rating ABUTH ([7]; Rate 250 g ai/ha): 100 | Post-emerge Herbicidal Activity, phytotoxicity rating CASOB ([8]; Rate 63 g ai/ha): 20 | Post-emerge Herbicidal Activity, phytotoxicity rating CASOB ([8]; Rate 250 g ai/ha): 60 | Post-emerge Herbicidal Activity, phytotoxicity rating CHEAL ([9]; Rate 63 g ai/ha): 100 | Post-emerge Herbicidal Activity, phytotoxicity rating CHEAL ([9]; Rate 250 g ai/ha): 100 | Post-emerge Herbicidal Activity, phytotoxicity rating IPOHE ([10]; Rate 63 g ai/ha): 30 | Post-emerge Herbicidal Activity, phytotoxicity rating IPOHE ([10]; Rate 250 g ai/ha): 60 | Post-emerge Herbicidal Activity, phytotoxicity rating SETVI ([11]; Rate 63 g ai/ha): 85 | Post-emerge Herbicidal Activity, phytotoxicity rating SETVI ([11]; Rate 250 g ai/ha): 99 | Post-emerge Herbicidal Activity, phytotoxicity rating DIGSA ([12]; Rate 63 g ai/ha): 20 | Post-emerge Herbicidal Activity, phytotoxicity rating DIGSA ([12]; Rate 250 g ai/ha): 40 | Pre-emerge herbicidal activity, phytotoxicity rating AMARE ([13]; 63 g ai/ha): 100 | Pre-emerge herbicidal activity, phytotoxicity rating AMARE ([13]; 250 g ai/ha): 100 | Pre-emerge herbicidal activity, phytotoxicity rating SORHA ([14]; 63 g ai/ha): 0 | Pre-emerge herbicidal activity, phytotoxicity rating SORHA ([14]; 250 g ai/ha): 40 | Pre-emerge herbicidal activity, phytotoxicity rating AMBEL ([15]; 63 g ai/ha): 30 | Pre-emerge herbicidal activity, phytotoxicity rating AMBEL ([15]; 250 g ai/ha): 90 | Pre-emerge herbicidal activity, phytotoxicity rating ECHCG ([16]; 63 g ai/ha): 10 | Pre-emerge herbicidal activity, phytotoxicity rating ECHCG ([16]; 250 g ai/ha): 80 | Pre-emerge herbicidal activity, phytotoxicity rating ABUTH ([17]; 63 g ai/ha): 100 | Pre-emerge herbicidal activity, phytotoxicity rating ABUTH ([17]; 250 g ai/ha): 100 | Pre-emerge herbicidal activity, phytotoxicity rating CASOB ([18]; 63 g ai/ha): 0 | Pre-emerge herbicidal activity, phytotoxicity rating CASOB ([18]; 250 g ai/ha): 0 | Pre-emerge herbicidal activity, phytotoxicity rating CHEAL ([19]; 63 g ai/ha): 95 | Pre-emerge herbicidal activity, phytotoxicity rating CHEAL ([19]; 250 g ai/ha): 100 | Pre-emerge herbicidal activity, phytotoxicity rating IPOHE ([20]; 63 g ai/ha): 0 | Pre-emerge herbicidal activity, phytotoxicity rating IPOHE ([20]; 250 g ai/ha): 0 | Pre-emerge herbicidal activity, phytotoxicity rating SETVI ([21]; 63 g ai/ha): 50 | Pre-emerge herbicidal activity, phytotoxicity rating SETVI ([21]; 250 g ai/ha): 100 | Pre-emerge herbicidal activity, phytotoxicity rating DIGSA ([22]; 63 g ai/ha): 60 | Pre-emerge herbicidal activity, phytotoxicity rating DIGSA ([22]; 250 g ai/ha): 100 | Pre-emerge phytotoxicity rating, crop damage RICE ([23]; 63 g ai/ha): 20 | Pre-emerge phytotoxicity rating, crop damage RICE ([23]; 250 g ai/ha): 60 | Pre-emerge phytotoxicity rating, crop damage CORN ([24]; 63 g ai/ha): 0 | Pre-emerge phytotoxicity rating, crop damage CORN ([24]; 250 g ai/ha): 0
